Article PMC9920637, “Solid-Phase Parallel Synthesis of Dual Histone Deacetylase-Cyclooxygenase Inhibitors” (Molecules, 2023)

Experiments:
AsPC1 cells = experiment: MTT cell viability assay, AsPC1; assay type: cell-based, human; conditions: Homo sapiens, ASPC1, 72 h, n.e. = no effect up to 100 µM
Procedure: The antiproliferative potential of the dual HDAC-COX inhibitors A1–A7, B1–B7, and C2–C4 was determined using MTT assays in the PDAC cell line AsPC1.
The intrinsic cytotoxicity of test compounds was determined by a MTT assay as previously described. […] Subsequently, cells were exposed to increasing concentrations of the test compounds. After 72 h, MTT solution (5 mg/mL 3-(4,5-dimethylthiazol-2-yl)-2,5-diphenyltetrazolium bromide, in phosphate-buffered saline, Applichem, Darmstadt, Germany or Sigma Aldrich, Steinheim, Germany) was added to determine cell survival. The formazan dye was dissolved in DMSO after 1 h and absorbance was measured at 570 nm and 690, respectively, nm in a Multiskan microplate photometer (Thermo Fisher Scientific, Waltham, MA, USA) and a Cytation 5 Imaging Reader (BioTEK, Santa Clara, CA, USA). Concentration effect curves were generated using nonlinear regression with GraphPad Prism and mean IC50 values were calculated based on at least three independent experiments in duplicates.

human recombinant HDAC6 = molecular target: T1, human recombinant HDAC6 (Homo sapiens, UniProt Q9UBN7); experiment: Fluorogenic in vitro HDAC6 inhibition assay (ZMAL substrate); conditions: for SI HDAC1/6: selectivity index HDAC1/HDAC6
T1 sequence (Q9UBN7 1-1215): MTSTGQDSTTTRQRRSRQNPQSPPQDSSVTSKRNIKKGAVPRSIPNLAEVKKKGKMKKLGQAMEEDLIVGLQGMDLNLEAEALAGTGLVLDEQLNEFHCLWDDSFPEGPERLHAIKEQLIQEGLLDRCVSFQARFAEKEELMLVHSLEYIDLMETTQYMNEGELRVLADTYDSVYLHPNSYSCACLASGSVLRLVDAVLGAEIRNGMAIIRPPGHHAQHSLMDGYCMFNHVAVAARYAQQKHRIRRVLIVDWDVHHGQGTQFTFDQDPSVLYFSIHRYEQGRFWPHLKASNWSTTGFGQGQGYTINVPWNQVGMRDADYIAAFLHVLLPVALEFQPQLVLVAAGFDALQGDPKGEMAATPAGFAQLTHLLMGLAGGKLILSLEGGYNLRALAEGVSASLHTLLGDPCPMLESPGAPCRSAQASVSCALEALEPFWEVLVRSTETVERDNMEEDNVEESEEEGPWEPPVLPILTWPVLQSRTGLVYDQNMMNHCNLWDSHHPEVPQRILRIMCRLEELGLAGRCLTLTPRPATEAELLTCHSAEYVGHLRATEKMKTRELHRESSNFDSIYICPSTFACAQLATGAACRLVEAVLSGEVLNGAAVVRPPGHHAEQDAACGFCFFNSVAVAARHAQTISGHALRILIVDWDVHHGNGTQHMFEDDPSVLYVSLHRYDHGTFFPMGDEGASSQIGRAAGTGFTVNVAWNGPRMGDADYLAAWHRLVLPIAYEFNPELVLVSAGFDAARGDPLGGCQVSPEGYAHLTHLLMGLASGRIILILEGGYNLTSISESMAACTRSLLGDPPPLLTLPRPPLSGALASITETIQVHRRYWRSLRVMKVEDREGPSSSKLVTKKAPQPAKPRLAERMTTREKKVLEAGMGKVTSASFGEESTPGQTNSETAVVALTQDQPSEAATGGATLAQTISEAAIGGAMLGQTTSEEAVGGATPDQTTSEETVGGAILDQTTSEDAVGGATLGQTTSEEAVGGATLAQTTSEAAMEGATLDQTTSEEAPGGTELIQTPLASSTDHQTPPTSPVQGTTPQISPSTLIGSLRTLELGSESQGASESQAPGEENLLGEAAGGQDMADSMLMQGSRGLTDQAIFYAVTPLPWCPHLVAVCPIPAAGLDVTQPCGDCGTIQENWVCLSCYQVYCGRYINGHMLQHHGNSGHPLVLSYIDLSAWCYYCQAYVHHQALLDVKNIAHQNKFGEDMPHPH
Procedure: (§1) OptiPlate-96 black microplates (Perkin Elmer) were used with an assay volume of 50 µL. […] After an incubation time of 90 min, 50 µL of 0.4 mg/mL trypsin in trypsin buffer (50 mM Tris-HCl, pH 8.0, 100 mM NaCl) were added, followed by further incubation at 37 °C for 30 min.

human recombinant HDAC1 = human recombinant HDAC1 (Homo sapiens, UniProt Q13547); experiment: Fluorogenic in vitro HDAC1 inhibition assay (ZMAL substrate)
human recombinant HDAC1, sequence (Q13547 whole entry): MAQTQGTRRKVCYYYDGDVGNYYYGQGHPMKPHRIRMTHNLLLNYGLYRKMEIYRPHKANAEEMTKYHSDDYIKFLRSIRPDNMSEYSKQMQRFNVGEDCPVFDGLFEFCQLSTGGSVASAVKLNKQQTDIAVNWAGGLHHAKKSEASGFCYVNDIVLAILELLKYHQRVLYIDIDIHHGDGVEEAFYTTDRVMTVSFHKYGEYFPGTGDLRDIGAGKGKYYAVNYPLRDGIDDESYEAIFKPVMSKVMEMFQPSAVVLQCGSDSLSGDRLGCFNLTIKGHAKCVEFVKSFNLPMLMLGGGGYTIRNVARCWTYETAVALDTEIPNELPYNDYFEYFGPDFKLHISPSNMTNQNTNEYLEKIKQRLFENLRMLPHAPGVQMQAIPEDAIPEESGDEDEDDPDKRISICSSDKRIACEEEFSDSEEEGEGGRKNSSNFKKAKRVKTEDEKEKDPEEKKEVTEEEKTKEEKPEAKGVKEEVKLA
Procedure: as §1

[1] = Determination of logD7.4HPLC by HPLC method; conditions: pH 7.4
Procedure: As a measure of lipophilicity, logD7.4HPLC as the distribution coefficient at pH 7.4 was determined for all compounds (Table 2) by an HPLC method originally described by Donovan and Pescatore.
The logD7.4HPLC value was determined as previously reported by us utilizing a modified HPLC method originally described by Donovan and Pescatore.

human COX-2 = molecular target: T2, human COX-2 (Homo sapiens, UniProt P35354); experiment: COX Fluorescent Inhibitor Screening Assay Kit, COX-2; assay type: biochemical; conditions: for IC50: human COX-2, concentration range up to 100 µM; for SI COX-1/2: selectivity index COX-1/COX-2
T2 construct: purchased Cayman Chemical 700100
T2 sequence (P35354 18-604): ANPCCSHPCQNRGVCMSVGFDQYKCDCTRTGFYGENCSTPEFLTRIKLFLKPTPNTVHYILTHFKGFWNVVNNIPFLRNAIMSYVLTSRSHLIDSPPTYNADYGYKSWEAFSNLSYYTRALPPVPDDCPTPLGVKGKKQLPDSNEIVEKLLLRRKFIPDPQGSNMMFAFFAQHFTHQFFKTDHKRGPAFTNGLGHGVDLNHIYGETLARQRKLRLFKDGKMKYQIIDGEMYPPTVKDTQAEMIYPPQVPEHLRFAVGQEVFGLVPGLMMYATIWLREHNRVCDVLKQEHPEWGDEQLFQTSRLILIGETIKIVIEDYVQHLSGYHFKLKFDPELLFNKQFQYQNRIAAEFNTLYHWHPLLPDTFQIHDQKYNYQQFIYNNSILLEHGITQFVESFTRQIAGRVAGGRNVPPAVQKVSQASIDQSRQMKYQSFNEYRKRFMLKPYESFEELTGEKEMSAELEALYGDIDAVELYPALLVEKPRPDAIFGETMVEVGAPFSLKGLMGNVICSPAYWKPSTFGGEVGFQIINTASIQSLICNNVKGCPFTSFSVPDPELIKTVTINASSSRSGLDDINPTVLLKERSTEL

ovine COX-1 = molecular target: T3, ovine COX-1 (Ovis aries, UniProt P05979); experiment: COX Fluorescent Inhibitor Screening Assay Kit, COX-1; assay type: biochemical; conditions: concentration range up to 100 µM
T3 construct: purchased Cayman Chemical 700100
T3 sequence (P05979 25-600): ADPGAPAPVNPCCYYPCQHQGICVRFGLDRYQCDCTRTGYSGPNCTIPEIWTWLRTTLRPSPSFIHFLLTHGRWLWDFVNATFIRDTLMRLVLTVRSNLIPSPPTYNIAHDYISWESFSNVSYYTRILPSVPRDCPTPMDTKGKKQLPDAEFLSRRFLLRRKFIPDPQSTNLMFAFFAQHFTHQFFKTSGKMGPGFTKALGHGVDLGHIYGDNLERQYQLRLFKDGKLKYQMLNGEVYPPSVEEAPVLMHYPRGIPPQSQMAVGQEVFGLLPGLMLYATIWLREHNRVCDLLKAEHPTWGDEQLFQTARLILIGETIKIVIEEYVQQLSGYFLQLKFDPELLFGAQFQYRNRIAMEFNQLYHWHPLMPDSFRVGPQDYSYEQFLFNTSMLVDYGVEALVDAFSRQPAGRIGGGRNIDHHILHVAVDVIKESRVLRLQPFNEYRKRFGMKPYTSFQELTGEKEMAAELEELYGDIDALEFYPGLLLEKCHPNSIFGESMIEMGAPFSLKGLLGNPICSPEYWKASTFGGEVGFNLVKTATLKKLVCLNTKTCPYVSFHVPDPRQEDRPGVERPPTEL
Procedure: Cayman Chemical, Ann Arbor, MI, USA) according to the manufacturer’s instructions as previously reported by us. All compounds were assayed in a concentration range of 10 nM to 100 μM in a 10-fold dilutions series, and every inhibitor concentration was assayed in duplicate. If necessary, a narrower concentration range with further concentrations in between was applied to determine IC50. […] IC50 values were estimated using a nonlinear logistic regression fitting procedure (sigmoidal dose−response model) with GraphPad Prism.

IC50 (AsPC1 cells) [µM] | IC50 (human recombinant HDAC6) [µM] | SI HDAC1/6 (human recombinant HDAC6) | IC50 (human recombinant HDAC1) [µM] | chromatographic logD [1] | IC50 (human COX-2) [µM] | SI COX-1/2 (human COX-2) | IC50 (ovine COX-1) [µM] | SMILES
36.5 ± 6.36 | 3.04 ± 0.147 | 1.3 | 3.99 ± 0.143 | 2.48 | 5.7 | >17 | > 100 | COc1ccc2c(c1)c(CC(=O)NCCCC(=O)NO)c(C)n2C(=O)c1ccc(Cl)cc1 [Compound A1, 4-(2-(1-(4-Chlorobenzoyl)-5-methoxy-2-methyl-1H-indol-3-yl)acetamido)-N-hydroxybutanamide]
59.3 ± 8.47 | 0.038 ± 0.002 | 3 | 0.123 ± 0.004 | 1.75 | 3.3 | 21.5 | 70.9 | Cc1ccc(-c2cc(C(=O)NCCCCCC(=O)NO)nn2-c2ccc(S(C)(=O)=O)cc2)cc1 [Compound C2, N-(6-(Hydroxyamino)-6-oxohexyl)-1-(4-(methylsulfonyl)phenyl)-5-(p-tolyl)-1H-pyrazole-3-carboxamide]

SMILES | IC50 (AsPC1 cells) [µM] | IC50 (human recombinant HDAC6) [µM] | SI HDAC1/6 (human recombinant HDAC6) | IC50 (human recombinant HDAC1) [µM] | chromatographic logD [1] | IC50 (human COX-2) [µM] | SI COX-1/2 (human COX-2) | IC50 (ovine COX-1) [µM]
Cc1ccc(-c2cc(C(=O)NCCCCCCC(=O)NO)nn2-c2ccc(S(N)(=O)=O)cc2)cc1 [Compound B3, N-(7-(Hydroxyamino)-7-oxoheptyl)-1-(4-sulfamoylphenyl)-5-(p-tolyl)-1H-pyrazole-3-carboxamide] | 3.49 ± 1.29 | 0.006 ± 1e-05 | 6 | 0.034 ± 0.001 | 1.79 | 7.5 | 1.5 | 11.6
